Results taken from US20230201221A1, “USE OF TERPENOIDS IN THE TREATMENT OR PREVENTION OF FIBROTIC DISEASES” (ARJIL BIOTECH HOLDING COMPANY LIMITED, priority 2020, published 2023).
Several values for one entry are separate records, joined by “and”; a condition that tells them apart may be missing. Identical values can stand only once.

Tests used:
Assay type in all cases: in vivo
[1] = system: New Zealand White rabbits; test: Hypercholesterolemic rabbit model: liver histology scores (steatosis, inflammation, fibrosis); design: key to Score of Fibrosis: 0: none; 1: mild perisinusoidal or periportal; 2: perisinusoidal and portal/periportal; 3: bridging fibrosis; 4: cirrhosis; key to Score of Steatosis Location: 0: zone 3, centrilobular; 1: zone 2, mid-zonal; 3: panacinar; conditions: individual liver slides; 0.5% cholesterol chow plus 10 mg/kg Lovastatin, 1% ARH003, 1% ARH004 or 10 mg/kg AR101-DS2; 12-week study
C57BL/6 mice = test: Cisplatin-induced renal injury in mice: serum CRE and BUN; conditions: extracts at 1000 mg/kg; compared to cisplatin-stimulated group, p<0.001
Method: Determination of biochemical parameters Serum creatinine and serum urea are assessed using colorimetric kits according to manufacturer's instructions. Kits of the former markers are purchased from (HUMAN Diagnostics Worldwide, Magdeburg, Germany) with a chemical analyzer (Roche Diagnostics, Cobas Mira Plus, Rotkreuz, Switzerland).
Seven-to-eight-week-old male C57BL/6 mice are obtained from the BioLASCO Taiwan Co., Ltd. (Taipei, Taiwan). The animals are housed in Plexiglas cages at a constant temperature of 22±1° C. and a relative humidity of 55±5% on a 12 h dark-light cycle for at least 2 weeks before the experiment. Animals are provided food and water ad libitum. All experimental procedures are performed according to the guidelines of the Institutional Animal Ethics Committee, and the protocol is approved by the Committee for the Purpose of Control and Supervision of Experiments on Animals.
Renal fibrosis is induced via multiple injections of low-dose cisplatin. Intraperitoneal injections of cisplatin (5 mg/kg/injection; P4394, Sigma-Aldrich, St Louis, Mo.) are performed at 0, 1, and 3 weeks, for a total of 3 injections. Mice are sacrificed at 6 weeks after the first dose of cisplatin (n=6). To analyze the effects of samples, mice are given daily intraperitoneal injections for 7 days, starting from 4 weeks after first dose of cisplatin, and sacrificed at […] (n=6).

ICR mice [2] = test: Bleomycin-induced pulmonary fibrosis in mice: lung hydroxyproline content; conditions: extract 1.0 g/kg; AH, BH, DH 50 mg/kg; p<0.001
Method: (§1) Mice were divided into fifth groups with 5 animals per group according to body weight: control group, BLM group, BLM+DEX group (7.5 mg/kg), BLM+ACH dosage group (50 mg/kg), and BLM+ACM dosage group (25 mg/kg), BLM+ACH dosage group (50 mg/kg), and BLM+ACM dosage group (25 mg/kg) BLM+AH dosage group (50 mg/kg), and BLM+AM dosage group (25 mg/kg) BLM+BH dosage group (50 mg/kg), and BLM+BM dosage group (25 mg/kg) BLM+CH dosage group (50 mg/kg), and BLM+CM dosage group (25 mg/kg) BLM+DH dosage group (50 mg/kg), and BLM+DM dosage group (25 mg/kg) BLM+EH dosage group (50 mg/kg), and BLM+EM dosage group (25 mg/kg) BLM. Pulmonary fibrosis (PF) was established in mice via a single intratracheal administration of BLM at 7.5 mg/kg mg/kg body weight. Different doses of samples were intragastrically administered daily for 21 days after BLM injury, and DEX was used as the positive control. Control and model groups received an equal volume of vehicle (0.9% NaCl) using the same schedule and route of administration.
The contents of hydroxyproline were analyzed in lung tissue following the instruction of hydroxyproline assay kit (Biosource International Inc., Sunnyvale, Calif., USA). The pulmonary tissues of mice were ground and homogenized with 1 ml of 6 mol/L […] solution, hydrolyzed at 95° C. for 5 hours, and the pH value was adjusted to 6.0-6.8. According to the instructions, the corresponding reagents were added to the reaction system and mixed thoroughly and then incubated for 15 minutes at 60° C. After cooling, the supernatants were collected after centrifuging at 3500 rpm for 10 minutes. The absorbance value of the supernatant from the samples was measured at 550 nm by a spectrophotometer and calculated for the contents of hydroxyproline on each group.

MPO = test: Bleomycin-induced pulmonary fibrosis in mice: lung myeloperoxidase (MPO) assay; conditions: compared with BLM group, p<0.001
Method: as §1
The pulmonary MPO activity was a reliable index for estimating the infiltration of inflammatory cells in lungs. The lung tissues were homogenized and the MPO levels were detected with the kits according to manufacturer's instruction.

ICR mice [3] = test: Bleomycin-induced pulmonary fibrosis in mice: body weight, lung weight, lung index; conditions: for Pulmonary index: (lung weight/body weight)×100
Method: Specific pathogen-free ICR mice (males) (body weights 18-22 g) were purchased from the BioLASCO Taiwan Co., Ltd. (Taipei, Taiwan). The animals were housed in Plexiglas cages at a constant temperature of 22±1° C. and a relative humidity of 55±5% on a 12 h dark-light cycle for at least 2 weeks before the experiment. Animals were provided food and water ad libitum. All experimental procedures were performed according to the guidelines of the Institutional Animal Ethics Committee, and the protocol was approved by the Committee for the Purpose of Control and Supervision of Experiments on Animals.
as §1
Mouse body weights were recorded daily. Mice were sacrificed on the 21th day using excess chloral hydrate hydrochloride anesthesia. Blood was obtained for ELISA analyses, and whole lungs were removed and weighed. The right lungs were fixed in 10% formalin, dehydrated, and embedded in paraffin. The left lungs were used to determine hydroxyproline. The pulmonary coefficient was calculated using the following equation: lung weight/body weight×100%
1. Group I: control; 2. Group II: mice received single intraperitoneal injection of BLM (7.5 mg/kg BW) 3. Group III: single dose (ACH, 0.5 g/kg) 4. Group IV: Single dose (ACM, 1.0 g/kg) 5. […] Group VII: purified AR101-DS2 (50 mg/kg) 8. Group VIII: purified AR101-DS2 (25 mg/kg) 7. Group VII: purified AR101-DS4 (50 mg/kg) 8. Group VIII: purified AR101-DS4 (25 mg/kg) 7. […] Group VII: purified ARH013-RA1 (50 mg/kg) 8. Group VIII: purified ARH013-RA1 (25 mg/kg)

[4] = system: TNF-α, IL-1β, IL-6 and TGF-β; test: Bleomycin-induced pulmonary fibrosis in mice: pro-inflammatory cytokines by ELISA; conditions: extract 1.0 g/kg; BH, DH 50 mg/kg; after BLM challenge; p<0.001
Method: as §1, with “administration. […]” for “administration.”
The serum concentration of the pro-inflammatory cytokines (i.e. tumor necrosis factor-α (TNF-α), interleukin-6 (IL-6), and IL-1β) in serum were assessed with relevant enzyme-linked immunosorbent assay (ELISA) kits (Biosource International Inc., Sunnyvale, Calif., USA), based on the manufacturer's instructions.

[5] = 25 mg/kg intragastric daily for 21 days after BLM
[6] = 50 mg/kg intragastric daily for 21 days after BLM

Row | Compound | Score of Fibrosis [1] | Score of Inflammation [1] | Score of Steatosis Grade [1] | Score of Steatosis Location [1] | renal protection: normalization of serum CRE and BUN (C57BL/6 mice) | hydroxyproline (HP) content in lung tissue (ICR mice [2]) | lung MPO activity (MPO) | Final body mass (ICR mice [3]; [5]) | Pulmonary mass (ICR mice [3]; [5]) | Pulmonary index (ICR mice [3]; [5]) | Final body mass (ICR mice [3]; [6]) | Pulmonary mass (ICR mice [3]; [6]) | Pulmonary index (ICR mice [3]; [6]) | lung index, result in words (ICR mice [3]; high-dose groups (ACH 1.0 g/kg; BH, DH 50 mg/kg), vs bleomycin-administered animals) | TNF-α, IL-1β, IL-6 and TGF-β production [4]
1 | CC[C@H](C)C(=O)O[C@H]1C[C@@H](C)C=C2C=C[C@H](C)[C@H](CC[C@@H]3C[C@@H](O)CC(=O)O3)[C@H]21 [L, Lovastatin, reference compound] | 0 (2×) and 1 | 1 (mild, 2 foci per 200 field) and 0 and 2 (moderate, 2-4 foci per 200 field) | 2 (33-66%) (2×) and 0 (low- to medium-power evaluation of parenchymal involvement <5%) | 1 (2×) and 0 | – | – | – | – | – | – | – | – | – | – | –
2 | C=C(CC[C@@H](C(=O)O)[C@H]1CC[C@@]2(C)C3=CC[C@H]4C(C)(C)[C@@H](O)CC[C@]4(C)C3=CC[C@]12C)C(C)C [AR101-DS4, Dehydroeburicoic Acid] | – | – | – | – | significant renal protection effect | – | – | – | – | – | – | – | – | – | –
3 | C=C(CC[C@@H](C)[C@H]1CC[C@H]2C3=C(C(=O)C[C@]12C)[C@@]1(C)CC[C@@H](O)[C@](C)(O)[C@@H]1C[C@@H]3O)[C@@H](C)C(=O)O (racemic) [AR101-DS1, RS-Antcin K] | – | – | – | – | – | reduced lung HP | evidently suppressed the MPO activities | – | – | – | – | – | – | – | –
4 | Dehydrosulphurenic acid/Sulphurenic acid [AR101-DS2] | 0 | 1 (mild, 2 foci per 200 field) (2×) and 2 (moderate, 2-4 foci per 200 field) | 3 (>66%) (2×) and 1 (5-33%) | 2 and 1 and 0 | – | reduced lung HP | evidently suppressed the MPO activities | 37.91 ± 0.30 g | 0.48 ± 0.01 g | 1.26 ± 0.03 | 39.7 ± 0.21 g | 0.39 ± 0.01 g | 1.01 ± 0.02 | significant decrease in the lung index | improved TNF-α, IL-1β, IL-6 and TGF-β production
